Measurements reported in PMC6981581, “N-(2-Arylmethylthio-4-Chloro-5-Methylbenzenesulfonyl)amide Derivatives as Potential Antimicrobial Agents—Synthesis and Biological Studies” (International Journal of Molecular Sciences, 2019).
Values after ≈ are worked out from the molar mass of the structure shown. Values joined by “and” are separate entries in the source; they are usually repeats but may differ in a detail not shown here. Equal values may be shown once. Read-outs that look alike come from different tables or passages of the source.

Legend:
Type in all cases: cell-based
[1] = test system: Enterococcus faecalis ATCC 11420; test: Broth dilution MIC/MBC, reference strain; details: for MBC/MIC: E. f. ATCC 11420; for MBC / MIC: Enterococcus faecalis, ATCC11420, E. faecalis ATCC 11420; for MBC: read-out: MBC; for MIC: read-out: MIC
Method: (§1) The tests were carried out using a serial dilution method, allowing the determination of MIC (minimal concentration inhibiting bacterial growth), MBC (minimal bactericidal concentration), and MFC (minimal fungicidal concentration) values.
(§2) Antimicrobial activity was tested using the following reference strains: Staphylococcus aureus ATCC 6538 (MSSA), Staphylococcus aureus ATCC 43300 (MRSA), Staphylococcus epidermidis PCM 2118, Escherichia coli ATCC 11229, Pseudomonas aeruginosa ATCC 15442, Proteus vulgaris NCTC 4635, Enterococcus faecalis ATCC 11420, and Candida albicans ATCC 10231.
(§3) A broth dilution method was used to determine minimal inhibitory concentration (MIC) for tested compounds as recommended by Clinical Laboratory Standards Institute (CLSI) guidelines. Investigated compounds were diluted in Mueller Hinton Broth 2 (Sigma-Aldrich Co., St. Louis, MO, USA) in polypropylene 96-well plates and initial inoculum 5 × 10^5 cfu/mL were incubated at 37 °C for 18 h. MIC was taken as the lowest drug concentration at which an observable growth was inhibited. […] The loopful (10 µL) of the tested sample was transferred to Tryptic Soy Agar (TSA, Becton-Dickinson, Franklin Lakes, NJ, USA) and incubated at 37 °C for 48 h. […] Drug Solutions were made fresh on the day of the assay. All experiments were performed in triplicate.

[2] = test system: Escherichia coli ATCC 11229; test: Broth dilution MIC/MBC, reference strain; details: for MBC/MIC: E. c. ATCC 11229; for MBC / MIC: Escherichia coli, ATCC11229, E. coli ATCC 11229; for MBC: read-out: MBC; for MIC: read-out: MIC
Method: as §1, §2, §3

[3] = test system: Proteus vulgaris NCTC 4635; test: Broth dilution MIC/MBC, reference strain; details: for MBC/MIC: P. v. NCTC 4635; for MBC / MIC: Proteus vulgaris, NCTC4635, P. vulgaris NCTC 4635; for MBC: read-out: MBC; for MIC: read-out: MIC
Method: as §1, §2, §3

[4] = test system: Pseudomonas aeruginosa ATCC 15442; test: Broth dilution MIC/MBC, reference strain; details: for MBC/MIC: P. a. ATCC 15442; for MBC / MIC: Pseudomonas aeruginosa, ATCC15442, P. aeruginosa ATCC 15442; for MBC: read-out: MBC; for MIC: read-out: MIC
Method: as §1, §2, §3

[5] = test system: Staphylococcus aureus ATCC 43300 (MRSA); test: Broth dilution MIC/MBC, reference strain; details: for MBC/MIC: S. a. ATCC 43300; for MBC / MIC: Staphylococcus aureus, S. aureus ATCC 43300; for MBC: read-out: MBC; for MIC: read-out: MIC
Method: as §1, §2, §3

[6] = test system: Staphylococcus aureus ATCC 6538 (MSSA); test: Broth dilution MIC/MBC, reference strain; details: for MBC/MIC: S. a. ATCC 6538; for MBC / MIC: Staphylococcus aureus, S. aureus ATCC 6538; for MBC: read-out: MBC; for MIC: read-out: MIC
Method: as §1, §2, §3

[7] = test system: Staphylococcus epidermidis PCM 2118; test: Broth dilution MIC/MBC, reference strain; details: for MBC/MIC: S. e. PCM 2118; for MIC: read-out: MIC
Method: as §1, §2, §3

[8] = test system: Candida albicans ATCC 10231; test: Broth dilution MIC/MFC, reference fungal strain; details: for MFC/MIC: C. a. ATCC 10231; for MFC / MIC: Candida albicans, ATCC10231, C. albicans ATCC 10231; for MFC: read-out: MFC; for MIC: read-out: MIC
Method: as §1, §2, §3

[9] = test system: HaCaT cell line (human keratinocyte); test: MTT cell viability assay; details: MTT assay, 72 h incubation, mean ± SD, read-out: IC50 HaCaT
[10] = test system: HCT-116 (colon cancer); test: MTT cell viability assay; details: Homo sapiens, 72 h incubation, mean ± SD
Method: (§4) Analysis was performed using the MTT test and 72 h of incubation.
(§5) All chemicals were obtained from Sigma-Aldrich (St. Louis, MO, USA). The MCF-7 and HeLa cell lines were purchased from Cell Lines Services (Eppelheim, Germany), the HCT-116 cell line was purchased from ATCC (ATCC-No: CCL-247). Cells were cultured in Dulbecco’s modified Eagle’s medium (DMEM) supplemented with 10% fetal bovine serum, 2 mM glutamine, 100 units/mL penicillin, and 100 μg/mL streptomycin. Cultures were held in an incubator (Heraceus, HeraCell) in a humidified atmosphere with 5% CO2 at 37 °C.
(§6) Cell viability was evaluated using the MTT (3-(4,5-dimethylthiazol-2-yl)-2,5-diphenyltetrazolium bromide) assay. Stock solutions of the studied compounds were obtained in 100% DMSO. […] Cells at a density of 5 × 10^3 cells/well, seeded in 96-well plates, were treated for 72 h with the tested compounds in the concentration range 1–100 μM (1, 10, 25, 50 and 100 μM). After treatment, cells were incubated for 2 h with MTT (0.5 mg/mL) at 37 °C. Cells were lysed with DMSO and the absorbance of the formazan solution was measured at 550 nm with a plate reader (1420 multilabel counter, Victor, Jügesheim, Germany). Values are expressed as the mean ± SD of at least three independent experiments conducted in triplicate.

[11] = test system: HeLa (cervical cancer); test: MTT cell viability assay; details: Homo sapiens, 72 h incubation, mean ± SD
Method: as §4, §5, §6

[12] = test system: MCF-7 (breast cancer); test: MTT cell viability assay; details: Homo sapiens, MCF7, 72 h incubation, mean ± SD
Method: as §4, §5, §6

[13] = Staphylococcus epidermidis, PCM2118, S. epidermidis PCM 2118, read-out: MBC
[14] = Staphylococcus epidermidis, PCM2118, S. epidermidis PCM 2118

MBC/MIC [1]	MIC [1]	MBC/MIC [2]	MIC [2]	MBC/MIC [3]	MIC [3]	MBC/MIC [4]	MIC [4]	MBC/MIC [5]	MIC [5]	MBC/MIC [6]	MIC [6]	MBC/MIC [7]	MIC [7, 14]	Compound	MBC [1]	MBC [2]	MBC [3]	MBC [4]	MBC [5]	MBC [6]	other results
>8	16 µg/mL (≈ 30.4 µM)	1	128 µg/mL (≈ 243 µM)	>2	64 µg/mL (≈ 122 µM)	2	64 µg/mL (≈ 122 µM)	16	8 µg/mL (≈ 15.2 µM)	16	8 µg/mL (≈ 15.2 µM)	1	8 µg/mL (≈ 15.2 µM)	Cc1cc(S(=O)(=O)NC(=O)C=Cc2ccccc2)c(SCc2cccc(C(F)(F)F)c2)cc1Cl [Compound 15, N-[4-Chloro-5-methyl-2-(3-trifluoromethylbenzylthio)benzenesulfonyl]cinnamamide]	> 128 µg/mL	128 µg/mL (≈ 243 µM)	> 128 µg/mL	128 µg/mL (≈ 243 µM)	128 µg/mL (≈ 243 µM)	128 µg/mL (≈ 243 µM)	MBC ([7]; S. epidermidis PCM 2118): 8 µg/mL (≈ 15.2 µM); MBC [7, 13]: 4 to 16 µg/mL (≈ 7.6 to 30.4 µM); MFC/MIC [8]: 2; MFC [8]: 128 µg/mL (≈ 243 µM); MIC [8]: 64 µg/mL (≈ 122 µM); IC50 [9]: 79 µg/mL and 150 µM; IC50 [10]: 86 ± 2 µM; IC50 [11]: 165 ± 9 µM; IC50 [12]: 93 ± 3 µM
>16	8 µg/mL (≈ 15.5 µM)	>1	128 µg/mL (≈ 248 µM)	>1	> 128 µg/mL	>1	128 µg/mL (≈ 248 µM)	>16	8 µg/mL (≈ 15.5 µM)	>16	8 µg/mL (≈ 15.5 µM)	>32	4 µg/mL (≈ 7.75 µM)	Cc1cc(S(=O)(=O)NC(=O)CCC2CCCCC2)c(SCc2cccc3ccccc23)cc1Cl [Compound 11, N-[4-Chloro-5-methyl-2-(naphthalen-1-ylmethylthio)benzenesulfonyl]-3-cyclohexylpropanamide]	> 128 µg/mL	> 128 µg/mL	> 128 µg/mL	> 128 µg/mL	> 128 µg/mL	> 128 µg/mL	MBC [7, 13]: > 128 µg/mL; MFC/MIC [8]: 2; MFC [8]: 128 µg/mL (≈ 248 µM); MIC [8]: 64 µg/mL (≈ 124 µM); IC50 [9]: 42 µg/mL and 81 µM; IC50 [10]: 66 ± 1 µM; IC50 [11]: 42 ± 2 µM; IC50 [12]: 82 ± 4 µM
>8	16 µg/mL (≈ 30.4 µM)	1	128 µg/mL (≈ 243 µM)	>1	128 µg/mL (≈ 243 µM)	2	64 µg/mL (≈ 122 µM)	16	8 µg/mL (≈ 15.2 µM)	16	8 µg/mL (≈ 15.2 µM)	2	8 µg/mL (≈ 15.2 µM)	Cc1cc(S(=O)(=O)NC(=O)C=Cc2ccccc2)c(SCc2ccc(C(F)(F)F)cc2)cc1Cl [Compound 14, N-[4-Chloro-5-methyl-2-(4-trifluoromethylbenzylthio)benzenesulfonyl]cinnamamide]	> 128 µg/mL	128 µg/mL (≈ 243 µM)	> 128 µg/mL	128 µg/mL (≈ 243 µM)	128 µg/mL (≈ 243 µM)	128 µg/mL (≈ 243 µM)	MFC/MIC [8]: 2; MFC [8]: 128 µg/mL (≈ 243 µM); MIC [8]: 64 µg/mL (≈ 122 µM); IC50 [9]: 147 µg/mL and 280 µM; IC50 [10]: 81 ± 1 µM; IC50 [11]: 96 ± 5 µM; IC50 [12]: 73 ± 1 µM
>16	8 µg/mL (≈ 15 µM)	>1	128 µg/mL (≈ 240 µM)	>2	64 µg/mL (≈ 120 µM)	>1	128 µg/mL (≈ 240 µM)	>32	4 µg/mL (≈ 7.49 µM)	>16	8 µg/mL (≈ 15 µM)	2	4 µg/mL (≈ 7.49 µM)	Cc1cc(S(=O)(=O)NC(=O)CCC2CCCCC2)c(SCc2ccc(C(F)(F)F)cc2)cc1Cl [Compound 9, N-[4-Chloro-5-methyl-2-(4-trifluoromethylbenzylthio)benzenesulfonyl]-3-cyclohexylpropanamide]	> 128 µg/mL	> 128 µg/mL	> 128 µg/mL	> 128 µg/mL	> 128 µg/mL	> 128 µg/mL	MBC ([7]; S. epidermidis PCM 2118): 8 µg/mL (≈ 15 µM); MBC [7, 13]: 4 to 16 µg/mL (≈ 7.49 to 30 µM); MFC/MIC [8]: 2; MFC [8]: 128 µg/mL (≈ 240 µM); MIC [8]: 64 µg/mL (≈ 120 µM); IC50 [9]: 40 µg/mL and 74 µM; IC50 [10]: 78 ± 2 µM; IC50 [11]: 90 ± 4 µM; IC50 [12]: 65 ± 3 µM
